Activity calls are given as the source filed them. The calls are words filed in the database; no cut-off is given here.
Tests used:
[1] = molecular target: T1, 5-hydroxytryptamine receptor 2A (Homo sapiens, UniProt P28223); assay: Antagonist activity at human recombinant 5-HT2A receptor expressed in CHOK1 cells assessed as inhibition of serotonin-induced calcium release preincubated for 15 mins followed by 5-HT addition measured every 1.7 secs for 60 secs by calcium 4 dye-based FLIPR assay; type: functional, cell-based
[2] = molecular target: T1, 5-hydroxytryptamine receptor 2A; assay: Agonist activity at human recombinant 5-HT2A receptor expressed in CHOK1 cells assessed as induction of calcium release incubated for 15 mins measured every 1.7 secs for 60 secs by calcium 4 dye-based FLIPR assay; type: functional, cell-based

T1 sequence (P28223 whole entry): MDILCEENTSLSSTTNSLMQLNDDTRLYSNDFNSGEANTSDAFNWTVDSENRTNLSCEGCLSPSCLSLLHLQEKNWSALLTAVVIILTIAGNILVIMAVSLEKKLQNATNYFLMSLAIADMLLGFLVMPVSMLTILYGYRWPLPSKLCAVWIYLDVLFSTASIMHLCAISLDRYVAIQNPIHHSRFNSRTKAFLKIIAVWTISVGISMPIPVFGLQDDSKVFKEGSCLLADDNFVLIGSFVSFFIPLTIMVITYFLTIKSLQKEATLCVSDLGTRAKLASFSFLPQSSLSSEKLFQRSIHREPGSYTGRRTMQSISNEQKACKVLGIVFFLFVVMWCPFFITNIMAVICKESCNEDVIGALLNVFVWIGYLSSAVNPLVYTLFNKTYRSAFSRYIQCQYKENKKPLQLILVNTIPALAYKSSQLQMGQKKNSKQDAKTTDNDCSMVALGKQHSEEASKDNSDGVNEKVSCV

COc1c(OCCOCCN=[N+]=[N-])cccc1[C@H](O)C1CCN(CCc2ccc(F)cc2)CC1
IC50 [1]: 0.0467 µM | inhibition [1]: Dose-dependent effect | Activity [2]: inactive

COc1c(OCCOCCOc2cn(CCOCCOc3cccc([C@H](O)C4CCN(CCc5ccc(F)cc5)CC4)c3OC)nn2)cccc1[C@H](O)C1CCN(CCc2ccc(F)cc2)CC1
IC50 [1]: 0.0365 µM | inhibition [1]: Dose-dependent effect | Activity [2]: inactive

C#CCOCCOCCOc1cccc([C@H](O)C2CCN(CCc3ccc(F)cc3)CC2)c1OC
IC50 [1]: 0.0566 µM | inhibition [1]: Dose-dependent effect | Activity [2]: inactive

COc1c(OCCOCCOCCOCCOCCOCCOc2cccc(C(=O)C3CCN(CCc4ccc(F)cc4)CC3)c2OC)cccc1C(=O)C1CCN(CCc2ccc(F)cc2)CC1
IC50 [1]: 0.0398 µM

COc1c(OCCOCCOCCOCCOCCOc2cccc(C(=O)C3CCN(CCc4ccc(F)cc4)CC3)c2OC)cccc1C(=O)C1CCN(CCc2ccc(F)cc2)CC1
IC50 [1]: 0.0295 µM
